From patent publication US20260344673A1, “A SOLID FORM FOR PREPARATION OF AN AQUEOUS DISPERSION, AQUEOUS DISPERSION, STABLE CONCENTRATE, COMBINED AQUEOUS DISPERSION, AND USES THEREOF” (priority 2022, published 2026)

Key:
[1] = test system: Colletotrichum gloeosporioides; assay: Kirby-Bauer disk diffusion test, Colletotrichum gloeosporioides; settings: Colletotrichum gloeosporioides; for % mycelium growth relative to the control / mycelium growth: V8 medium; for mycelium growth: control 5.4 cm; for EFFICACY W (Abbot): control W=0, no growth W=100
Experimental: (§1) The microbiological tests were carried out by applying Kirby-Bauer Disk Diffusion Susceptibility Test Protocol for antimicrobial activity. It is based on the formation of a concentration gradient in the growth medium during the diffusion of the active substance from the antibiogram disc (Kirby-Bauer method).
(§2) The performance of the embodiments of the present inventions and their mixtures enriched with millbase (MFA) was analysed against the appropriate reference substance, i.e., a commercial product containing the analogue active substance with the same concentration. The prepared solutions were applied on the paper antibiograms. Then the soaked antibiograms were placed on the Petri Dishes (dish diameter 90 mm) with the growth medium for fungal pathogens V8. Composition of V8: agar, calcium carbonate and multi-vegetable juice. 3 fragments of mycelium of the tested pathogen (5×5 mm) were transplanted onto the prepared medium. As a result, the zones where the fungal growth was inhibited have been measured and compared respectively with the control sample and the analogue active substance sample.
(§3) Assessment was carried out by determining the infested area of the Petri dish in %. These percentages have been converted into efficacy (W) according to Abbot's formula as follows: W=(1−α/β)×100 • where: • α—corresponds to the mycelium/bacterial growth of each tested sample [%], • β—corresponds to the mycelium/bacterial growth in control sample [%].
(§4) In order to estimate if the combined action effect with the commercial fungicide, the W parameter of the mixture was compared with W parameter for particular commercial fungicide solo. Where W=0 the efficacy of the control sample (whole Petri dish covered with mycelium), and W=100 is when no mycelium growth observed.

[2] = test system: Alternaria infectoria/alternata; assay: Kirby-Bauer disk diffusion test, Alternaria infectoria/alternata; settings: for % mycelium growth relative to the control / mycelium growth: V8 medium; for mycelium growth: control 8.6 cm; for EFFICACY W (Abbot): control W=0, no growth W=100
Experimental: as §2, §3, §4

Sclerotinia sclerotiorum = assay: Kirby-Bauer disk diffusion test, Sclerotinia sclerotiorum; settings: for % mycelium growth relative to the control / mycelium growth: V8 medium; for mycelium growth: control 8.6 cm; for EFFICACY W (Abbot): control W=0, no growth W=100
Experimental: as §2, §3, §4

Botrytis cinerea = assay: Kirby-Bauer disk diffusion test, Botrytis cinerea; settings: for % mycelium growth relative to the control / mycelium growth: V8 medium; for mycelium growth: control 8.6 cm; for EFFICACY W (Abbot): control W=0, no growth W=100
Experimental: as §2, §3, §4

Rhizoctonia solani = assay: Kirby-Bauer disk diffusion test, Rhizoctonia solani; settings: for % mycelium growth relative to the control / mycelium growth: V8 medium; for mycelium growth: control 8.6 cm; for EFFICACY W (Abbot): control W=0, no growth W=100
Experimental: as §2, §3, §4

Fusarium equiseti = assay: Kirby-Bauer disk diffusion test, Fusarium equiseti; settings: for % mycelium growth relative to the control / mycelium growth: V8 medium; for mycelium growth: control 8.6 cm; for EFFICACY W (Abbot): control W=0, no growth W=100
Experimental: as §2, §3, §4

Phytophthora cactorum = assay: Kirby-Bauer disk diffusion test, Phytophthora cactorum; set-up: % mycelium growth relative to the control: concentration or dose not given beside the values; settings: for % mycelium growth relative to the control / mycelium growth: V8 medium; for mycelium growth: control 5.4 cm; for EFFICACY W (Abbot): control W=0, no growth W=100
Experimental: as §2, §3, §4

Monilinia fructigena = assay: Kirby-Bauer disk diffusion test, Monilinia fructigena; settings: for % mycelium growth relative to the control / mycelium growth: V8 medium; for mycelium growth: control 5.4 cm; for EFFICACY W (Abbot): control W=0, no growth W=100
Experimental: as §2, §3, §4

Venturia inaegualis = assay: Kirby-Bauer disk diffusion test, Venturia inaequalis; settings: for EFFICACY W (Abbot): control W=0, no growth W=100
Experimental: as §1, §2, §3, §4

Fusarium oxysporum = assay: Kirby-Bauer disk diffusion test, Fusarium oxysporum; settings: Fusarium oxysporum
Experimental: as §1, §2, §3, §4

Phytophthora megasperma = assay: Kirby-Bauer disk diffusion test, Phytophthora megasperma; settings: Phytophthora megasperma
Experimental: as §1, §2, §3, §4

Septoria tritici = assay: Kirby-Bauer disk diffusion test, Septoria tritici
Experimental: as §2, §3, §4

Septoria nodorum (1291) = assay: Kirby-Bauer disk diffusion test, Septoria nodorum (1291)
Experimental: as §2, §3, §4

Verticillium longisporum = assay: Kirby-Bauer disk diffusion test, Verticillium longisporum
Experimental: as §2, §3, §4

[3] = Venturia inaegualis, V8 medium, control 2.9 cm

O=[N+]([O-])c1cc(C(F)(F)F)c(Cl)c([N+](=O)[O-])c1Nc1ncc(C(F)(F)F)cc1Cl [fluazinam (200)]
% mycelium growth relative to the control [1]: 0%
mycelium growth [1]: 0 cm
EFFICACY W (Abbot) [1]: 100
% mycelium growth relative to the control [2]: 40%
mycelium growth [2]: 3.4 cm
EFFICACY W (Abbot) [2]: 60
% mycelium growth relative to the control (Sclerotinia sclerotiorum): 100%
mycelium growth (Sclerotinia sclerotiorum): 8.6 cm
EFFICACY W (Abbot) (Sclerotinia sclerotiorum): 0
% mycelium growth relative to the control (Botrytis cinerea): 100%
mycelium growth (Botrytis cinerea): 8.6 cm
EFFICACY W (Abbot) (Botrytis cinerea): 0
% mycelium growth relative to the control (Rhizoctonia solani): 100%
mycelium growth (Rhizoctonia solani): 8.6 cm
EFFICACY W (Abbot) (Rhizoctonia solani): 0
% mycelium growth relative to the control (Fusarium equiseti): 80%
mycelium growth (Fusarium equiseti): 6.9 cm
EFFICACY W (Abbot) (Fusarium equiseti): 20
% mycelium growth relative to the control (Phytophthora cactorum): 33%
mycelium growth (Phytophthora cactorum): 1.8 cm
EFFICACY W (Abbot) (Phytophthora cactorum): 67
% mycelium growth relative to the control (Monilinia fructigena): 0%
mycelium growth (Monilinia fructigena): 0 cm
EFFICACY W (Abbot) (Monilinia fructigena): 100

CCCCCCCCCCCCNC(=N)N [Dodine, dodine, reference compound]
activity at 680000 µg/mL (Venturia inaegualis; Venturia, dodine 680 g/L, read-out: % mycelium growth relative to the control): 55%
inhibition of growth at 680000 µg/mL (stock) (Venturia inaegualis; Venturia, dodine 680 g/L, read-out: EFFICACY W (Abbot)): 45%
mycelium growth (Venturia inaegualis; dodine 680 g/L): 1.6 cm

O=C(NCCc1ncc(C(F)(F)F)cc1Cl)c1ccccc1C(F)(F)F [Fluopyram (500)]
% mycelium growth relative to the control (Fusarium oxysporum; V8 medium): 100%
mycelium growth (Fusarium oxysporum; V8 medium, control 8.6 cm): 8.6 cm
EFFICACY W (Abbot) (Fusarium oxysporum; control W=0, no growth W=100): 0
% mycelium growth relative to the control (Phytophthora megasperma; V8 medium): 65%
mycelium growth (Phytophthora megasperma; V8 medium, control 5.4 cm (8.6 cm in Table 25)): 3.5 cm
EFFICACY W (Abbot) (Phytophthora megasperma; control W=0, no growth W=100): 35
% mycelium growth relative to the control (Venturia inaegualis; Venturia inaegualis, V8 medium): 0%
mycelium growth (Venturia inaegualis; [3]): 0 cm
EFFICACY W (Abbot) (Venturia inaegualis; Venturia inaegualis): 100
% mycelium growth relative to the control [2]: 55%
mycelium growth [2]: 4.7 cm
EFFICACY W (Abbot) [2]: 45
% mycelium growth relative to the control (Sclerotinia sclerotiorum): 100%
mycelium growth (Sclerotinia sclerotiorum): 8.6 cm
EFFICACY W (Abbot) (Sclerotinia sclerotiorum): 0
% mycelium growth relative to the control (Septoria tritici; V8 medium): 0%
mycelium growth (Septoria tritici; V8 medium, control 1.9 cm): 0 cm
EFFICACY W (Abbot) (Septoria tritici; control W=0, no growth W=100): 100
% mycelium growth relative to the control (Septoria nodorum (1291); V8 medium): 61%
mycelium growth (Septoria nodorum (1291); V8 medium, control 5.4 cm): 3.3 cm
EFFICACY W (Abbot) (Septoria nodorum (1291); control W=0, no growth W=100): 39
% mycelium growth relative to the control (Rhizoctonia solani): 100%
mycelium growth (Rhizoctonia solani): 8.6 cm
EFFICACY W (Abbot) (Rhizoctonia solani): 0
% mycelium growth relative to the control (Fusarium equiseti): 79%
mycelium growth (Fusarium equiseti): 6.8 cm
EFFICACY W (Abbot) (Fusarium equiseti): 21
% mycelium growth relative to the control (Fusarium graminearum; V8 medium): 66%
mycelium growth (Fusarium graminearum; V8 medium, control 8.6 cm): 5.7 cm
EFFICACY W (Abbot) (Fusarium graminearum; control W=0, no growth W=100): 34
% mycelium growth relative to the control (Phytophthora cactorum): 72%
mycelium growth (Phytophthora cactorum): 3.9 cm
EFFICACY W (Abbot) (Phytophthora cactorum): 28
% mycelium growth relative to the control (Monilinia fructigena): 30%
mycelium growth (Monilinia fructigena): 1.6 cm
EFFICACY W (Abbot) (Monilinia fructigena): 70
% mycelium growth relative to the control (Verticillium longisporum; V8 medium): 95%
mycelium growth (Verticillium longisporum; V8 medium, control 3.9 cm): 3.7 cm
EFFICACY W (Abbot) (Verticillium longisporum; control W=0, no growth W=100): 5

O=C1C2CC=CCC2C(=O)N1SC(Cl)(Cl)Cl (stereo not drawn) [Captan (1500)]
% mycelium growth relative to the control [1]: 11%
mycelium growth [1]: 0.6 cm
EFFICACY W (Abbot) [1]: 89
% mycelium growth relative to the control (Venturia inaegualis; Venturia inaegualis, V8 medium): 38%
mycelium growth (Venturia inaegualis; [3]): 1.1 cm
EFFICACY W (Abbot) (Venturia inaegualis; Venturia inaegualis): 62
% mycelium growth relative to the control (Botrytis cinerea): 70%
mycelium growth (Botrytis cinerea): 6 cm
EFFICACY W (Abbot) (Botrytis cinerea): 30
% mycelium growth relative to the control (Monilinia fructigena): 33%
mycelium growth (Monilinia fructigena): 1.8 cm
EFFICACY W (Abbot) (Monilinia fructigena): 67
